Calls of active or inactive are those of the source. The rule behind the calls is not given here.
What was measured:
[1] = test system: COL1A1 promoter; experiment: Inhibition of COL1A1 promotor activity in human LX2 cells at 20 uM incubated for 24 hrs by luciferase reporter gene assay; assay type: cell-based
[2] = test system: COL1A1 promoter; experiment: Inhibition of COL1A1 promotor activity in human LX2 cells at 50 uM incubated for 24 hrs by luciferase reporter gene assay; assay type: cell-based
[3] = Cytotoxicity against human LX2 cells assessed as cell death incubated for 24 hrs by MTT assay; assay type: cell-based, LX-2

SMILES	inhibition [1]	inhibition [2]	CC50 at 24 h [3] [µM]
Cc1cc(OCCCCCCC[n+]2ccccc2)cc(-n2cc(C(=O)Nc3cc(F)cc(F)c3)c(=O)c3ccc(N(C)C)nc32)c1	7.7%	61%	
CN(C)c1ccc2c(=O)c(C(=O)Nc3cc(F)cc(F)c3)cn(-c3ccc(OCCCCCCC[N+]4(C)CCCC4)c(Cl)c3)c2n1		2.59%	
CN(C)c1ccc2c(=O)c(C(=O)Nc3cc(F)cc(F)c3)cn(-c3ccc(OCCCCCCC[n+]4ccccc4)cc3F)c2n1	15.4%	inactive	< 20
CN1CC[N+](C)(CCCCCCCOc2cc(-n3cc(C(=O)Nc4cc(F)cc(F)c4)c(=O)c4ccc(N(C)C)nc43)ccc2Cl)CC1	27.5%	45.2%	
Cc1cc(-n2cc(C(=O)Nc3cc(F)cc(F)c3)c(=O)c3ccc(N(C)C)nc32)ccc1OCCCCCCC[N+]12CCN(CC1)CC2	10.6%	20.8%	
Cc1cc(OCCCCCCC[N+]2(C)CCCCC2)ccc1-n1cc(C(=O)Nc2cc(F)cc(F)c2)c(=O)c2ccc(N(C)C)nc21	inactive	inactive	< 20
Cc1ccc(-n2cc(C(=O)Nc3cc(F)cc(F)c3)c(=O)c3ccc(N(C)C)nc32)cc1OCCCCCCC[N+]12CCN(CC1)CC2	5.07%	9.71%	
CC[N+]1(CCCCCCCOc2ccc(-n3cc(C(=O)Nc4cc(F)cc(F)c4)c(=O)c4ccc(N(C)C)nc43)cc2Cl)CCCC1		23.5%	
Cc1cc(OCCCCCCC[N+]2(C)CCN(C)CC2)cc(-n2cc(C(=O)Nc3cc(F)cc(F)c3)c(=O)c3ccc(N(C)C)nc32)c1	2.8%	38.2%	
CN(C)c1ccc2c(=O)c(C(=O)Nc3cc(F)cc(F)c3)cn(-c3ccc(OCCCCCCC[N+]4(C)CCCC4)cc3Cl)c2n1	inactive	inactive	< 20
CC[N+]1(CCCCCCCOc2ccc(-n3cc(C(=O)Nc4cc(F)cc(F)c4)c(=O)c4ccc(N(C)C)nc43)c(F)c2)CCCCC1	inactive	inactive	< 20
CN(C)c1ccc2c(=O)c(C(=O)Nc3cc(F)cc(F)c3)cn(-c3ccc(Cl)c(OCCCCCCC[N+]4(C)CCCC4)c3)c2n1	51%	76.1%	54.5
CN1CC[N+](C)(CCCCCCCOc2ccc(-n3cc(C(=O)Nc4cc(F)cc(F)c4)c(=O)c4ccc(N(C)C)nc43)c(Cl)c2)CC1	inactive	inactive	< 20
CC[N+]1(CCCCCCCOc2ccc(-n3cc(C(=O)Nc4cc(F)cc(F)c4)c(=O)c4ccc(N(C)C)nc43)c(Cl)c2)CCCCC1	inactive	inactive	< 20
O=C(O[C@@H]1Cc2c(O)cc(O)cc2O[C@@H]1c1cc(O)c(O)c(O)c1)c1cc(O)c(O)c(O)c1 [EPIGALOCATECHIN GALLATE]	19.2%	32.2%	> 100
CN1CC[N+](C)(CCCCCCCOc2ccc(-n3cc(C(=O)Nc4cc(F)cc(F)c4)c(=O)c4ccc(N(C)C)nc43)c(F)c2)CC1	inactive		
CC[N+]1(CCCCCCCOc2ccc(-n3cc(C(=O)Nc4cc(F)cc(F)c4)c(=O)c4ccc(N(C)C)nc43)cc2Cl)CCCCC1	14.3%	50.4%	
CN(C)c1ccc2c(=O)c(C(=O)Nc3cc(F)cc(F)c3)cn(-c3ccc(OCCCCCCC[N+](C)(C)C4CCCCC4)cc3Cl)c2n1	inactive	inactive	
Cc1cc(OCCCCCCC[N+]2(C)CCN(C)CC2)ccc1-n1cc(C(=O)Nc2cc(F)cc(F)c2)c(=O)c2ccc(N(C)C)nc21	inactive	inactive	< 20
Cc1ccc(-n2cc(C(=O)Nc3cc(F)cc(F)c3)c(=O)c3ccc(N(C)C)nc32)cc1OCCCCCCC[N+]1(C)CCN(C)CC1	10.3%	25%	
Cc1ccc(-n2cc(C(=O)Nc3cc(F)cc(F)c3)c(=O)c3ccc(N(C)C)nc32)cc1OCCCCCCC[n+]1ccccc1	39.7%	22.2%	
CN(C)c1ccc2c(=O)c(C(=O)Nc3cc(F)cc(F)c3)cn(-c3ccc(OCCCCCCC[N+]4(C)CCCC4)cc3F)c2n1	inactive	inactive	< 20
CN(C)c1ccc2c(=O)c(C(=O)Nc3cc(F)cc(F)c3)cn(-c3ccc(OCCCCCCC[N+]4(C)CCCCC4)cc3Cl)c2n1	inactive	inactive	< 20
CC[N+]1(CCCCCCCOc2ccc(-n3cc(C(=O)Nc4cc(F)cc(F)c4)c(=O)c4ccc(N(C)C)nc43)cc2C)CCCCC1	19.7%	53.4%	
CN(C)c1ccc2c(=O)c(C(=O)Nc3cc(F)cc(F)c3)cn(-c3ccc(OCCCCCCC[N+]45CCN(CC4)CC5)c(Cl)c3)c2n1		20.4%	
CC[N+]1(CCCCCCCOc2ccc(-n3cc(C(=O)Nc4cc(F)cc(F)c4)c(=O)c4ccc(N(C)C)nc43)c(F)c2)CCCC1	inactive	inactive	< 20
Cc1cc(OCCCCCCC[N+]23CCN(CC2)CC3)cc(-n2cc(C(=O)Nc3cc(F)cc(F)c3)c(=O)c3ccc(N(C)C)nc32)c1	10.3%	5.52%	

SMILES	inhibition [1]	inhibition [2]	CC50 at 24 h [3] [µM]
CC[N+]1(CCCCCCCOc2cc(C)cc(-n3cc(C(=O)Nc4cc(F)cc(F)c4)c(=O)c4ccc(N(C)C)nc43)c2)CCCC1	35.1%	73.2%	
Cc1cc(OCCCCCCC[N+]2(C)CCCC2)cc(-n2cc(C(=O)Nc3cc(F)cc(F)c3)c(=O)c3ccc(N(C)C)nc32)c1	4.32%	35.4%	
Cc1ccc(-n2cc(C(=O)Nc3cc(F)cc(F)c3)c(=O)c3ccc(N(C)C)nc32)cc1OCCCCCCC[N+]1(C)CCCC1	12.7%	55.9%	
Cc1ccc(-n2cc(C(=O)Nc3cc(F)cc(F)c3)c(=O)c3ccc(N(C)C)nc32)cc1OCCCCCCC[N+]1(C)CCCCC1	23.4%	45.1%	
CN(C)c1ccc2c(=O)c(C(=O)Nc3cc(F)cc(F)c3)cn(-c3ccc(OCCCCCCC[n+]4ccccc4)cc3Cl)c2n1	inactive	inactive	
CN(C)c1ccc2c(=O)c(C(=O)Nc3cc(F)cc(F)c3)cn(-c3ccc(OCCCCCCC[N+]45CCN(CC4)CC5)cc3Cl)c2n1	40.1%	80%	76.9
CC[N+]1(CCCCCCCOc2cc(-n3cc(C(=O)Nc4cc(F)cc(F)c4)c(=O)c4ccc(N(C)C)nc43)ccc2Cl)CCCC1	46%	96.4%	61.3
CN(C)c1ccc2c(=O)c(C(=O)Nc3cc(F)cc(F)c3)cn(-c3ccc(OCCCCCCC[N+]4(C)CCCCC4)c(Cl)c3)c2n1		inactive	
CN(C)c1ccc2c(=O)c(C(=O)Nc3cc(F)cc(F)c3)cn(-c3ccc(OCCCCCCC[n+]4ccccc4)c(Cl)c3)c2n1		21.4%	
CN(C)c1ccc2c(=O)c(C(=O)Nc3cc(F)cc(F)c3)cn(-c3ccc(Cl)c(OCCCCCCC[N+]4(C)CCCCC4)c3)c2n1	57.3%	90.5%	72.6
Cc1cc(OCCCCCCC[N+]2(C)CCCC2)ccc1-n1cc(C(=O)Nc2cc(F)cc(F)c2)c(=O)c2ccc(N(C)C)nc21	inactive	inactive	< 20
CN(C)c1ccc2c(=O)c(C(=O)Nc3cc(F)cc(F)c3)cn(-c3ccc(OCCCCCCC[N+]4(C)CCCCC4)cc3F)c2n1	inactive	inactive	< 20
Cc1cc(OCCCCCCC[n+]2ccccc2)ccc1-n1cc(C(=O)Nc2cc(F)cc(F)c2)c(=O)c2ccc(N(C)C)nc21	inactive	inactive	
CC[N+]1(CCCCCCCOc2cc(-n3cc(C(=O)Nc4cc(F)cc(F)c4)c(=O)c4ccc(N(C)C)nc43)ccc2Cl)CCCCC1	inactive	inactive	
CC[N+]1(CCCCCCCOc2ccc(-n3cc(C(=O)Nc4cc(F)cc(F)c4)c(=O)c4ccc(N(C)C)nc43)c(Cl)c2)CCCC1	inactive	inactive	< 20
Cc1cc(-n2cc(C(=O)Nc3cc(F)cc(F)c3)c(=O)c3ccc(N(C)C)nc32)ccc1OCCCCCCC[N+]1(C)CCCC1	26.1%	35.9%	
Cc1cc(-n2cc(C(=O)Nc3cc(F)cc(F)c3)c(=O)c3ccc(N(C)C)nc32)ccc1OCCCCCCC[n+]1ccccc1	inactive	55%	
Cc1cc(OCCCCCCC[N+](C)(C)C2CCCCC2)ccc1-n1cc(C(=O)Nc2cc(F)cc(F)c2)c(=O)c2ccc(N(C)C)nc21	inactive	inactive	
Cc1ccc(-n2cc(C(=O)Nc3cc(F)cc(F)c3)c(=O)c3ccc(N(C)C)nc32)cc1OCCCCCCC[N+](C)(C)C1CCCCC1	32.3%	61.7%	
Cc1cc(-n2cc(C(=O)Nc3cc(F)cc(F)c3)c(=O)c3ccc(N(C)C)nc32)ccc1OCCCCCCC[N+]1(C)CCCCC1	33%	54.4%	
CN(C)c1ccc2c(=O)c(C(=O)Nc3cc(F)cc(F)c3)cn(-c3ccc(OCCCCCCC[N+](C)(C)C4CCCCC4)cc3F)c2n1	inactive	inactive	
CN1CC[N+](C)(CCCCCCCOc2ccc(-n3cc(C(=O)Nc4cc(F)cc(F)c4)c(=O)c4ccc(N(C)C)nc43)cc2Cl)CC1		15.4%	
Cc1cc(OCCCCCCC[N+](C)(C)C2CCCCC2)cc(-n2cc(C(=O)Nc3cc(F)cc(F)c3)c(=O)c3ccc(N(C)C)nc32)c1	52.5%	89.1%	61.8
CN(C)c1ccc2c(=O)c(C(=O)Nc3cc(F)cc(F)c3)cn(-c3ccc(Cl)c(OCCCCCCC[N+]45CCN(CC4)CC5)c3)c2n1	8.08%	18.7%	
Cc1cc(-n2cc(C(=O)Nc3cc(F)cc(F)c3)c(=O)c3ccc(N(C)C)nc32)ccc1OCCCCCCC[N+]1(C)CCN(C)CC1	16.2%	32%	
CN(C)c1ccc2c(=O)c(C(=O)Nc3cc(F)cc(F)c3)cn(-c3ccc(OCCCCCCC[N+]45CCN(CC4)CC5)cc3F)c2n1	9.02%	42.4%	

Reference: ChEMBL document CHEMBL4840344, “Discovery of 1,8-naphthalidine derivatives as potent anti-hepatic fibrosis agents via repressing PI3K/AKT/Smad and JAK2/STAT3 pathways” (Bioorg Med Chem, 2021)
